Source: US4618610A, “Triazine derivatives, and pharmaceutical compositions comprising the same” (Fujisawa Pharmaceutical Co., Ltd., priority 1983, dated 1986)
Read-outs that look alike come from different tables or passages of the source.

Key:
[1] = tested on: platelet; assay: Test Method B: inhibition of platelet aggregation in platelet rich plasma; assay type: cell-based; conditions: Oryctolagus cuniculus, rabbit PRP, 37° C.
Procedure: Platelet rich plasma (PRP) which contains 6.5-7.5×10^8 platelet/ml was prepared from rabbit blood. To the 200 ul of PRP, 5 μl of calcium chloride (1 mM) and 50 μl of pH 7.4 Tris-acetate solution (5 mM) containing 120 mM NaCl and test compound were added successively, and then stirred for 2 min. at 37° C. To the solution, 5 μl of adenosine diphosphate (ADP) (2.5 μM) or collagen (2.5 ug/ml) was added as an aggregation inducer. Aggregation was measured by using an aggregometer (NKK HEMA TRACER 1).

[2] = tested on: blood pressure; assay: Test method A: antihypertensive activity, oral, in uninephrectomized DOCA/saline rats; assay type: in vivo, rat (Wister); conditions: orally, DOCA rats, mean arterial pressure
Procedure: Five-week old male Wister rats were uninephrectomized under anesthesia. Deoxycorticosterone […] (DOCA) (30 mg/kg), suspended in peanut oil, was injected subcutaneously twice a week and 1% saline was substituted for the drinking water. Animals with mean blood pressure 150-200 mmHg were used for experiment between 5 and 7 weeks after surgery.
The test compounds were administered orally.
Blood pressure was measured at the femoral artery by means of a pressure transducer and recorded as electrically integrated values of mean arterial pressure.
a: The test compound were administered orally in a dose of 1 mg/kg.
b: The test compound were administered orally in dose of 0.1 mg/kg.

[3] = tested on: ethanol ulcer; assay: Test methods C: ethanol ulcer (antiulcer activity); assay type: in vivo, rat (Sprague-Dawley); conditions: 32 mg/kg orally, 30 minutes before absolute ethanol (5 ml/kg)
Procedure: Five male Sprague-Dawley rats, aged 7 weeks and weighing about 200 g, were used per group for the study on ethanol ulcer after the fast for 24 hours.
Test compound was suspended in 0.1% methylcellulose aqueous solution, and the suspension (5 ml/kg) was orally given to each rat.
The control group was given a vehicle, i.e. 0.1% methylcellulose aqueous solution (5 ml/kg), alone in the same way.
Absolute ethanol (5 ml/kg) was orally administered 30 minutes after dosing with test compound, and one hour later, the rats were sacrificed and their stomachs were removed. The area of ulcers of each rat was measured. The mean area (mm^2) in the medicated group was compared with that in the control group.

[4] = ADP (2.5 μM) as aggregation inducer, read-out: ID50 ADP (platelet aggregation)
[5] = collagen (2.5 ug/ml) as aggregation inducer, read-out: ID50 Collagen (platelet aggregation)

Row | Structure (SMILES) | IC50 [1, 4] | IC50 [1, 5] | Effect Max (mean ratio of maximum decrease of blood pressure) ([2]; dose b: 0.1 mg/kg) | Effect Max (mean ratio of maximum decrease of blood pressure) ([2]; dose a: 1 mg/kg) | Effect (mean ulcer area compared with control group) [3]
1 | CC1NC(=O)NN=C1c1ccc(NC(=O)C2CC2)cc1 (stereo not shown) [Example 24-(10), 6-(4-Cyclopropanecarbonylaminophenyl)-5-methyl-4,5-dihydro-1,2,4-triazin-3(2H)-one] | 34 nM | 3.1 nM | 41.1% |  | 
2 | CC(=O)Nc1ccc(C2=NNC(=O)NC2C)cc1 (stereo not shown) [Example 1-(3), 6-(4-acetamidophenyl)-5-methyl-4,5-dihydro-1,2,4-triazin-3(2H)-one] | 620 nM | 220 nM | 19.2% | 48.9% | 
3 | CNC(=O)Nc1ccc(C2=NNC(=O)NC2C)cc1 (stereo not shown) [Example 6, 6-[4-(3-methylureido)phenyl]-5-methyl-4,5-dihydro-1,2,4-triazin-3(2H)-one] | 740 nM | 410 nM | 6.6% | 43.1% | 
4 | CC(=O)Nc1ccc(C2=NNC(=S)NC2C)cc1 (stereo not shown) [Example 23-(3), 6-(4-acetamidophenyl)-5-methyl-4,5-dihydro-1,2,4-triazin-3(2H)-thione] |  |  |  |  | 87.0%
5 | CCOC(=O)Nc1ccc(C2=NNC(=O)NC2C)cc1 (stereo not shown) [Example 24-(4), 6-(4-Ethoxycarbonylaminophenyl)-5-methyl-4,5-dihydro-1,2,4-triazin-3(2H)-one] | 380 nM | 69 nM | 28.6% | 54.5% | 
